Assay results from patent US20260248881A1, “PHARMACEUTICAL COMPOSITION COMPRISING FOXM1 INHIBITOR AND IMMUNE CHECKPOINT INHIBITOR FOR PREVENTING OR TREATING CANCER” (National Cancer Center, priority 2022, published 2026).

How the values were obtained:
[1] = system: human primary coronary artery smooth muscle cells (SMCs); test: Cell viability assay (WST-1), SMC normal cells; type: cell-based; conditions: 48 hours
Protocol: MC38 and SMC were cultured at a density of 3×10^3 cells/well in 96-well plates. The cells were treated with various concentrations of TST dissolved in the medium for 48 hours, then WST-1 reagent (MK400; Takara) was added at a concentration of 10 μL/well and cultured for 1 hour. The absorbance was measured at 450 nm for further analysis.

human H1299 or PC9 cells = test: Xenograft tumor model; type: in vivo, BALB/c nude mice
Protocol: Mice (n=6) were injected intraperitoneally with TST dissolved in DMSO at a dose of 17 mg/kg every 2 days before euthanasia and sacrifice. Tumor volume and body weight of the mice were measured every other day. […] Two days after the final TST injection, all mice were sacrificed, and tumor tissues were collected for immunohistochemical (IHC) staining of FOXM1 and PD-L1. The tissues were fixed in 10% neutralized formaldehyde and embedded in paraffin blocks. Tissue microarray (TMA) slides were made with a 4 mm diameter per sample and sectioned at 4 μm thickness to perform IHC with anti-FOXM1 (#20459S) or anti-PD-L1 (#13684S) (Cell Signaling Technology) antibodies. Autostainer Link48 (Dako, Agilent Technologies, Santa Clara, CA, USA) was used for analysis.
IHC staining was performed using anti-rabbit-HRP antibodies (K4003, EnVision+ HRP Labelled Polymer Anti-Rabbit, Dako, Agilent Technologies, Carpinteria, CA, USA) and 3,3′-diaminobenzidine (DAB) (K3468, DAB+ Chromogen, Dako, Agilent Technologies, Santa Clara, CA, USA) as substrates, and the sections were counterstained with hematoxylin (K8008, EnVision FLEX Hematoxylin, Dako, Agilent Technologies Singapore, Singapore). To analyze the in vivo toxicity of the tested drugs, four xenograft mice from each group were used for serum biochemical analysis (Table 2). On day 9, serum samples were collected from the mice in the control and TST-treated groups. In addition, the vital organs (liver, spleen, and kidney) were collected form mice, sectioned, and stained with H&E to monitor histopathological changes.
To investigate the effect of TST, which is a FOXM1 inhibitor, on tumor growth and PD-L1 expression in vivo, human H1299 or PC9 cells (5×10^6) were subcutaneously implanted into BALB/c nude mice (n=6 per group). When the average size of the xenografted tumor masses reached approximately 170 mm^3, TST was injected intraperitoneally into the mice at a dose of 17 mg/kg four times every 2 days (FIG. 7a). […] 2 days after the final TST treatment, the mice were sacrificed. […]

FOXM1 = biological target: T1, FOXM1 (Homo sapiens, UniProt Q08050); test: FOXM1 inhibitors tested in H1299 and PC9 cells (FOXM1 levels); type: cell-based
T1 construct: host or cells: H1299 and PC9 cells
T1 sequence (Q08050 1-763): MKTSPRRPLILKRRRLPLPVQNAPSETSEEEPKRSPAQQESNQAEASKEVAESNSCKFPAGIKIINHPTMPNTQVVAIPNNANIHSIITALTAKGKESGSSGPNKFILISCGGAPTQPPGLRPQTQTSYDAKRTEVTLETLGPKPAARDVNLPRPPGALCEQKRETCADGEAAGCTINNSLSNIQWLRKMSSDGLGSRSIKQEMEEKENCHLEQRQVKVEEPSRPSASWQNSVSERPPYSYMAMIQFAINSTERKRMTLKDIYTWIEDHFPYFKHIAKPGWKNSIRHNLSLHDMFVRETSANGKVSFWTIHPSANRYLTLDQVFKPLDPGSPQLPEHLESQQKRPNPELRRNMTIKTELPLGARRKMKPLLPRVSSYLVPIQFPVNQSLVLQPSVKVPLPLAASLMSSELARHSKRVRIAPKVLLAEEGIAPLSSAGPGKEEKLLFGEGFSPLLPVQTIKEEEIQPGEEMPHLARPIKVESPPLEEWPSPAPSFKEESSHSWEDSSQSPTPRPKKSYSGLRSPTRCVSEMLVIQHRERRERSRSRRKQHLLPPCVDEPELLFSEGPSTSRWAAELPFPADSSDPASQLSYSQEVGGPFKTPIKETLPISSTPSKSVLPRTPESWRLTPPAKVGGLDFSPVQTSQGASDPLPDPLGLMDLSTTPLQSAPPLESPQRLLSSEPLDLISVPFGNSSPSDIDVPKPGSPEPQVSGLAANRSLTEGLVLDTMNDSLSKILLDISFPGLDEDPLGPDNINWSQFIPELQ
Protocol: H1299 and PC9 cells purchased from ATCC (Manassas, VA, USA) were cultured in RPMI-1640 medium (#10-040-CV; Corning, New York, NY, USA) supplemented with 10% […] (#35-010-CV; Corning) and penicillin-streptomycin antibiotic cocktail (#15240062; Thermo Fisher Scientific, Waltham, MA, USA) at 37° C. and 5% CO2.
Total RNA was extracted and purified using the RNeasy kit (#74004; QIAGEN) according to the manufacturer's protocol. Reverse transcription of mRNA was performed using a PrimeScript 1st Strand CDNA Synthesis Kit (#6110A; TaKaRa Bio, Otsu, Japan). Quantitative PCR was performed using primers specific for the CD274 and FOXM1 genes designed using Primer 3 software. A β-actin gene was used as an internal control group to normalize target gene expression.

**Q.** thiostrepton [TST] was tested. Which “in vitro cytotoxicity on SMC normal cells” value [1] did it give?
**A.** Its value is “no significant apoptotic cell death”.

**Q.** What about the “FOXM1 and PD-L1 expression in tumors (immunohistochemical analysis)” value (human H1299 or PC9 cells; 2 days after final TST treatment, vs control mice) of the same substance?
**A.** The value was “significantly downregulated”.

**Q.** What about the tumor volume (human H1299 or PC9 cells; TST 17 mg/kg intraperitoneally four times every 2 days, vs control group) of the same substance?
**A.** Its tumor volume is “significant decrease in tumor volume”.

**Q.** What about the body weight (human H1299 or PC9 cells; after 9 days, TST vs control) of the same substance?
**A.** Its body weight is “no difference in body weight”.

**Q.** And the FOXM1 levels (FOXM1)?
**A.** The FOXM1 levels was “the most effective inhibitor, significantly reducing FOXM1 levels”.
